Laboratory results reported in patent publication US11897880B2, “7,8-dihydrobenzo[e]pyrido[3,4-c]azocine-2,5(3H,6H)-dione derivatives useful as a factor XIa inhibitors” (Janssen Pharmaceutica NV, priority 2021, dated 2024).
Where two headings read alike, the source gives them in different places.

Experiments:
[1] = target: Factor XIa (Homo sapiens, UniProt P03951); assay: Factor XIa inhibition assay utilizing a fluorophore-quencher pair peptide substrate (FLINT); type: biochemical; conditions: for IC50: read-out: FXIa IC50; for Ki: read-out: FXIa Ki
Factor XIa, sequence (P03951 388-625 limits assumed): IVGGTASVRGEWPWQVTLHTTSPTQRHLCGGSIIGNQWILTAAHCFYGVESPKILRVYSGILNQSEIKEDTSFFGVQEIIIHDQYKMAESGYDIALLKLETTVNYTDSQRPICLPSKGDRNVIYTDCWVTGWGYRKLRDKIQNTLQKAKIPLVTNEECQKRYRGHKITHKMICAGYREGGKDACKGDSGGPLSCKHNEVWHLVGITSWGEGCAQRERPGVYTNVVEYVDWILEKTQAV
Factor XIa, sequence (P03951 19-387 partner limits assumed): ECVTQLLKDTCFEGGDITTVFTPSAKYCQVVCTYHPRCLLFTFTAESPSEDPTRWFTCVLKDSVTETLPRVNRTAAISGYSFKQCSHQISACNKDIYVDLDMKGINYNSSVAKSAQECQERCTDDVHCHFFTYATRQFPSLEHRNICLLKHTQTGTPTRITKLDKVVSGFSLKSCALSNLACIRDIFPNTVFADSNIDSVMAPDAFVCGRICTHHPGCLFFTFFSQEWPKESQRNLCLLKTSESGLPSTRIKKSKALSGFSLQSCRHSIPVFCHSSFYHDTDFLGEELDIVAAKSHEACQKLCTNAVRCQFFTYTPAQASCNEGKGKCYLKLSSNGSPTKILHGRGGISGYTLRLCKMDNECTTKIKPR
From the text: Biological Example 1: Factor XIa Inhibition Assay Utilizing a Fluorophore-Quencher Pair Peptide Substrate
A fluorescence intensity (FLINT) based assay was used to monitor inhibition of Factor XIa. The peptide substrate, 5Fam-KLTRAETV-K5Tamra (purchased from New England Peptide) was chosen based on the FXI sequence. Conversion of zymogen FXI to its activated form, FXIa, occurs by proteolytic cleavage by […] at two sites, Arg146 and Arg180. The custom peptide used in this assay was based on the Arg146 cleavage site of FXI. The peptide substrate was designed with a fluorophore-quencher pair, where the fluorescence is quenched until FXIa cleaves the 8-mer peptide after the Arg residue.
The Factor XIa FLINT assay was used with the following 5Fam-KLTRAETV-K5Tamra assay buffer: 50 mM Tris, pH 7.5, 100 mM NaCl, 5 mM CaCl2), 0.1 mg/mL BSA, 0.03% CHAPS. Assay buffer was prepared by mixing all ingredients fresh. 5Fam-KLTRAETV-K5Tamra peptide substrate was first prepared at 10 mM in 100% DMSO, then diluted to 3 mM in 100% DMSO. Assay buffer was then added directly to the 3 mM stock of substrate to prepare the 30 μM 2× working concentration (15 μM final concentration). The 2× Factor XIa stock solution was prepared by diluting 6.562 μM stock in 1× assay buffer for a […].
Test compound(s) were run in an 11-point, 3-fold serial dilution with a final top compound concentration of 100 nM. Final DMSO in assay was 2%. FXIa was preincubated with compound for 30-minutes and then substrate was added to initiate the reaction. The assay was run with kinetic (KIN) reads at 5 min intervals over 30 minutes. The time course was linear using […] FXIa greater than 30 minutes. More specifically, the assay was run as follows: • 100 nL of 0.01 mM test compound was dispensed into black 384-well non-binding Greiner BioOne 784900 plate for 0.1 μM final concentration; • 5 μL of 1× assay buffer was dispensed to column 24 (low control) and 5 μL 2× Factor XIa solution was dispensed to columns 1-23 (column 23 high control); • the plate was centrifuged with a “cover” plate at 500 rpm for 1 min • the plate was pre-incubated for 30 minutes at room temperature with plate covered; • 5 μL of 2×5Fam-KLTRAETV-K5Tamra peptide substrate was dispensed into the entire plate, columns 1-24; • the plate was centrifuged with a “cover” plate at 500 rpm for 1 min; • the plate was read monitoring fluorescence intensity on the BMG PHERAStar at room temperature, using fluorescence module 485 nm/520 nm.
Percent inhibition (IC50) curves were generated per compound tested, and data was analyzed using a 4-parameter logistic fit using GeneData Screener. The relative fluorescence unit (RFU) values were normalized to percent inhibition using the following equation: % inhibition=((HC−LC)−(compound−LC)/(HC−LC))*100
where LC−low control=mean signal of no Factor XIa or 100% inhibition of Factor XIa; HC−high control=mean signal of Factor XIa+5Fam-KLTRAETV-K5Tamra peptide substrate with DMSO only.
An 11-point dose response curve for the test compound(s) was generated using GENDATA to determine IC50 value based on the following equation: Y=Bottom+(Top−Bottom)/(1+10^((log IC50−X)*HillSlope))
where Y is the % inhibition in the presence of X inhibitor concentration, Top=high control=mean signal of Factor XIa+5Fam-KLTRAETV-K5Tamra peptide substrate with DMSO only; Bottom=low control−mean signal of no Factor XIa or 100% inhibition of Factor XIa; HillSlope−Hill coefficient; and IC50=concentration of compound with 50% inhibition in relation to top/high control.
(§1) Representative compounds of formula (I) of the present invention were tested according to the procedure described in Biological Example 1 and Biological Example 2 above, with results as listed in Table 3, below.

[2] = target: human plasma kallikrein (Homo sapiens, UniProt P03952); assay: Kallikrein inhibition assay utilizing a quenched AMC peptide substrate (FLINT); type: biochemical; conditions: 30 min preincubation, 50 μM Z-Gly-Pro-Arg-AMC, 2 nM kallikrein
human plasma kallikrein, sequence (P03952 391-638 limits assumed): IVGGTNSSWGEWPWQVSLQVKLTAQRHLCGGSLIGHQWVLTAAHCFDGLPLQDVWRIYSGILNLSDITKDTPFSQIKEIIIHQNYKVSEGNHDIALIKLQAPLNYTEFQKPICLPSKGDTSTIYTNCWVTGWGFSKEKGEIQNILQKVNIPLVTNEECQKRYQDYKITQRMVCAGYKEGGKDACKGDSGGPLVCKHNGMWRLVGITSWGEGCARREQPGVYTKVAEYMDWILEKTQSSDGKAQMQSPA
human plasma kallikrein, sequence (P03952 20-390 partner limits assumed): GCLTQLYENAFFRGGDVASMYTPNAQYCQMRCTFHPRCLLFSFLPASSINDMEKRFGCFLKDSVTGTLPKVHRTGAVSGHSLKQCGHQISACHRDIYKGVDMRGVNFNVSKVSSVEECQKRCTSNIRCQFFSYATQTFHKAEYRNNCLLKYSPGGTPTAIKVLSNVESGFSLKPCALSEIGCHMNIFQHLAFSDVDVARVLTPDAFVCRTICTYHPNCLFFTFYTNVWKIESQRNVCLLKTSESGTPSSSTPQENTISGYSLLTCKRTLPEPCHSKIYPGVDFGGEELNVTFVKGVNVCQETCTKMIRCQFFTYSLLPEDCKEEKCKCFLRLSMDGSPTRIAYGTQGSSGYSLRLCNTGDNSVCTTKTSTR
From the text: Biological Example 2: Kallikrein Inhibition Assay Utilizing a Quenched AMC Peptide Substrate
A fluorescence intensity (FLINT) based assay was used to monitor inhibition of human plasma kallikrein. The peptide substrate, Z-Gly-Pro-Arg-AMC (Purchased from Bachem; Catalog #1-1150) was chosen based on its relatively low KM for kallikrein which enables running the assay at lower substrate concentrations to control background fluorescence.
The Kallikrein FLINT assay was used with the following Z-Gly-Pro-Arg-AMC assay buffer: 50 mM Tris, pH 7.5, 100 mM NaCl, 5 mM CaCl2), 0.1 mg/mL BSA, 0.03% CHAPS. Assay buffer was prepared by mixing all ingredients fresh. 2× Z-Gly-Pro-Arg-AMC peptide substrate was prepared by diluting 10 mM stock into 1× assay buffer for a 100 μM working concentration (50 μM final concentration). The 2× kallikrein stock solution was prepared by diluting 14.76 μM stock in 1× assay buffer for a 4 nM working stock solution (2 nM final concentration).
Test compound(s) were run in an 11-point, 3-fold serial dilution with a final top compound concentration of 1 μM. Final DMSO in assay was 2%. Plasma kallikrein was pre-incubated for 30-minute with compound and then 50 μM substrate was added to initiate the reaction. The assay was run with kinetic (KIN) reads at 5 min intervals over 30 minutes. The time course was linear using 2 nM kallikrein greater than 30 minutes. More specifically, the assay was run as follows: • 100 nL of 0.1 mM test compound was dispensed into black 384-well non-binding Greiner BioOne 784900 plate for 1 μM final concentration; • 5 μL of 1× assay buffer was dispensed to columns 24 (low control) and 5 μL 2× human kallikrein enzyme solution was dispensed to columns 1-23 (column 23 high control); • the plate was centrifuged with a “cover” plate at 500 rpm for 1 min • the plate was pre-incubated for 30 minutes at room temperature with plate covered; • 5 μL of 2× Z-Gly-Pro-Arg-AMC peptide substrate was dispensed into the entire plate, columns 1-24; • the plate was centrifuged with a “cover” plate at 500 rpm for 1 min; the plate was read monitoring fluorescence intensity on the BMG PHERAStar at room temperature, using fluorescence module 340 nm/440 nm.
Percent inhibition (IC50) curves were generated per compound tested, and data was analyzed using a 4-parameter logistic fit using GeneData Screener. The relative fluorescence unit (RFU) values were normalized to percent inhibition using the following equation: % inhibition=((HC−LC)−(compound−LC)/(HC−LC))*100 where LC—low control=mean signal of human kallikrein enzyme or 100% inhibition of human kallikrein enzyme; HC—high control=mean signal of […]+Z-Gly-Pro-Arg-AMC peptide substrate with DMSO only.
An 11-point dose response curve for the test compound(s) was generated using GENDATA to determine IC50 value based on the following equation: Y=Bottom+(Top−Bottom)/(1+10^((log IC50−X)*HillSlope)) • where Y is the % inhibition in the presence of X inhibitor concentration, Top=high control=mean signal of human kallikrein enzyme+Z-Gly-Pro-Arg-AMC peptide substrate with DMSO only; Bottom=low control−mean signal of no human kallikrein enzyme or 100% inhibition of human kallikrein enzyme; HillSlope—Hill coefficient; and IC50=concentration of compound with 50% inhibition in relation to top/high control.
as §1

[3] = 30 min preincubation, 5Fam-KLTRAETV-K5Tamra substrate 15 μM final, kinetic reads
[4] = cells that print μM themselves in the nM column
[5] = cells that print μM themselves in the nM column, same assay conditions

Question: Which IC50 [1, 3] does the source give for `Nc1ccc(-c2cnc([C@H]3CCc4c5c(cc(=O)n43)-c3c(ccc(Cl)c3F)CC3(CC3)NC5=O)[nH]2)c(Cl)n1` (stereo in doubt) [Compound 53, (R*)-12-(5-(6-amino-2-chloropyridin-3-yl)-1H-imidazol-2-yl)-7-chloro-8-fluoro-13,14-dihydro-2H-spiro[benzo[5,6]azocino[4,3-g]indolizine-3,1′-cyclopropane]-1,10(4H,12H)-dione] here?
Answer: 0.0959 µM

Question: And the Ki [1]?
Answer: 0.0479 µM

Question: What about the IC50 [2] of the same compound?
Answer: > 10000 nM

Question: What does the source list for `O=C1NC2(CC2)Cc2ccc(Cl)c(F)c2-c2cc(=O)n3c(c21)CC[C@H]3c1ncc(-c2ccc3scnc3c2)[nH]1` (stereo in doubt) [Compound 27, (S*)-12-(5-(benzo[d]thiazol-5-yl)-1H-imidazol-2-yl)-7-chloro-8-fluoro-13,14-dihydro-2H-spiro[benzo[5,6]azocino[4,3-g]indolizine-3,1′-cyclopropane]-1,10(4H,12H)-dione]?
Answer: Ki [1, 4]: 1.19 µM; IC50 [1, 5]: 2.39 µM; IC50 [2]: > 10000 nM

Question: Which results are given for `Nc1ccc(-c2cnc([C@H]3CCc4c5c(cc(=O)n43)-c3c(ccc(Cl)c3F)CC3(CC3)N(CCO)C5=O)[nH]2)c(F)n1` (single isomer, unassigned) [Compound 12, (R*)-12-(5-(6-amino-2-fluoropyridin-3-yl)-1H-imidazol-2-yl)-7-chloro-8-fluoro-2-(2-hydroxyethyl)-13,14-dihydro-2H-spiro[benzo[5,6]azocino[4,3-g]indolizine-3,1′-cyclopropane]-1,10(4H,12H)-dione]?
Answer: IC50 [1, 3]: 0.0692 µM; Ki [1]: 0.0346 µM; IC50 [2]: > 10000 nM

Question: With `CN1C(=O)c2c(cc(=O)n3c2CC[C@@H]3c2ncc(-c3ccc(N)nc3F)[nH]2)-c2c(ccc(Cl)c2F)CC12CC2` (stereo in doubt) [Compound 40, (R*)-12-(5-(6-amino-2-fluoropyridin-3-yl)-1H-imidazol-2-yl)-7-chloro-8-fluoro-2-methyl-13,14-dihydro-2H-spiro[benzo[5,6]azocino[4,3-g]indolizine-3,1′-cyclopropane]-1,10(4H,12H)-dione] as the compound, how does the Ki [1, 4] read?
Answer: > 5 µM

Question: And the IC50 [1, 5]?
Answer: > 10 µM

Question: And the IC50 [2]?
Answer: > 10000 nM

Question: With `O=C1NC2(CC2)Cc2ccc(Cl)c(F)c2-c2cc(=O)n3c(c21)CC[C@H]3c1ncc(-c2ccc3[nH]ccc3c2)[nH]1` (single isomer, unassigned) [Compound 13, (S*)-12-(5-(1H-indol-5-yl)-1H-imidazol-2-yl)-7-chloro-8-fluoro-13,14-dihydro-2H-spiro[benzo[5,6]azocino[4,3-g]indolizine-3,1′-cyclopropane]-1,10(4H,12H)-dione] as the compound, how does the IC50 [1, 3] read?
Answer: 0.002 µM

Question: And the Ki [1]?
Answer: 0.001 µM

Question: And the IC50 [2]?
Answer: 70 nM

Question: Which results are given for `O=C1NC2(CC2)Cc2ccc(Cl)c(F)c2-c2cc(=O)n3c(c21)CC[C@@H]3c1ncc(-c2ccc3scnc3c2)[nH]1` (stereo in doubt) [Compound 26, (R*)-12-(5-(benzo[d]thiazol-5-yl)-1H-imidazol-2-yl)-7-chloro-8-fluoro-13,14-dihydro-2H-spiro[benzo[5,6]azocino[4,3-g]indolizine-3,1′-cyclopropane]-1,10(4H,12H)-dione]?
Answer: IC50 [1, 3]: 0.0005 µM; Ki [1]: 0.0003 µM; IC50 [2]: 70 nM

Question: What does the source list for `O=C1NC2(CC2)Cc2ccc(Cl)c(F)c2-c2cc(=O)n3c(c21)CC[C@H]3c1ncc(-c2ccn3c(Br)cnc3c2)[nH]1` (single isomer, unassigned) [Compound 71, (*S)-12-(5-(3-Bromoimidazo[1,2-a]pyridin-7-yl)-1H-imidazol-2-yl)-7-chloro-8-fluoro-13,14-dihydro-2H-spiro[benzo[5,6]azocino[4,3-g]indolizine-3,1′-cyclopropane]-1,10(4H,12H)-dione]?
Answer: Ki [1, 4]: > 5 µM; IC50 [1, 5]: > 10 µM; IC50 [2]: > 10000 nM

Question: For `CC1(C)Cc2ccc(Cl)c(F)c2-c2cc(=O)n3c(c2C(=O)N1)CC[C@@H]3c1ncc(-c2ccc(N)nc2F)[nH]1` (single isomer, unassigned) [Compound 21, (R*)-12-(5-(6-amino-2-fluoropyridin-3-yl)-1H-imidazol-2-yl)-7-chloro-8-fluoro-3,3-dimethyl-3,4,13,14-tetrahydrobenzo[5,6]azocino[4,3-g]indolizine-1,10(2H,12H)-dione], which IC50 [1, 5] is on record?
Answer: 1.2 µM

Question: And the Ki [1]?
Answer: 0.598 µM

Question: What about the IC50 [2] of the same compound?
Answer: > 10000 nM

Question: What does the source list for `Cn1ccc(-c2cnc([C@H](CC3CC3)n3cc4c(cc3=O)-c3c(ccc(Cl)c3F)CC3(CC3)NC4=O)[nH]2)cc1=O` (single isomer, unassigned) [Compound 69, (S*)-11-chloro-3-(2-cyclopropyl-1-(5-(1-methyl-2-oxo-1,2-dihydropyridin-4-yl)-1H-imidazol-2-yl)ethyl)-12-fluoro-3H-spiro[benzo[e]pyrido[3,4-c]azocine-7,1′-cyclopropane]-2,5(6H,8H)-dione]?
Answer: IC50 [1, 3]: 0.108 µM; Ki [1]: 0.0541 µM; IC50 [2]: 8080 nM

Question: Which Ki [1, 4] does the source give for `Cn1nncc1-c1cnc([C@H]2CCc3c4c(cc(=O)n32)-c2c(ccc(Cl)c2F)CCNC4=O)[nH]1` (stereo in doubt) [Compound 45, (R*)-7-chloro-8-fluoro-12-(5-(1-methyl-1H-1,2,3-triazol-5-yl)-1H-imidazol-2-yl)-3,4,13,14-tetrahydrobenzo[5,6]azocino[4,3-g]indolizine-1,10(2H,12H)-dione] here?
Answer: 2.58 µM

Question: And the IC50 [1, 5]?
Answer: 5.15 µM

Question: And the IC50 [2]?
Answer: > 10000 nM
